This assay relates to primary rat osteoblasts. The experiment in a line: Proliferation of primary rat osteoblasts (cell counts and [3H]-thymidine incorporation). In kind it is cell-based. To be noted: for Mitogenic / proliferative effect on primary osteoblasts (in words): significantly different from control by ANOVA, post hoc Dunnett's test. The procedure:
Osteoblasts were isolated by collagenase digestion from 20-day fetal rat ? viously described by Lowe, et al. (1991). Calvariae were dissected aseptically, and the frontal and parietal bones were stripped of their periosteum. Only the central portions of the bones, free from suture tissue, were collected. The calvariae were treated twice with phosphate buffered saline (PBS) containing 3 mM EDTA (pH 7.4) for 15 minutes at 37° C. in a shaking water bath. After washing once in PBS, the calvariae were treated twice with 3 ml of 1 mg/ml collagenase for 7 minutes at 37° C. After discarding the supernatants from digestions I and II, the calvariae were treated further two times with 3 ml of 2 mg/ml collagenase (30 mins, 37° C.). The supernatants of digestions III and IV were pooled, centrifuged, and the cells washed in Dulbecco's modified Eagle's medium (DME) with 10% fetal calf serum (FCS), suspended in DME/10% FCS, and placed in […] flasks. The cells were incubated under 5% CO2 and 95% air at 37° C. Confluence was reached by 5-6 days, at which time the cells were subcultured. After trypsinization using trypsin-EDTA (0.05%/0.53 mM), the cells were rinsed in minimum essential medium (MEM) with 5% FCS and resuspended in a fresh medium, then seeded at 5×10^4 cells/ml in 24-well plates (0.5 ml cell suspension per well, i.e., 1.4×10^4 cells/cm^2).
Proliferation studies (cell counts and thymidine incorporation) were performed both in actively growing and non-actively growing cell populations. To produce actively growing cells, sub-confluent populations (24 h after subculturing) were placed in fresh MEM containing 1% FCS and a lactoferrin fragment sample (see Table 1 below). To produce non-actively growing cells, sub-confluent populations were placed in serum-free medium with 0.1% bovine serum albumin plus a lactoferrin fragment sample. Cell numbers were analyzed at 6, 24, and 48 hours after the addition of lactoferrin fragment samples. The cell numbers were determined after detaching cells from the wells by exposure to trypsin/EDTA (0.05%/0.53 mM) for approximately 5 minutes at 37° C. Counting was performed in a haemocytometer chamber. [3H]-thymidine incorporation into actively growing and non-actively growing cells was assessed by pulsing the cells with [3H]-thymidine (1 μCi/well) two hours before the end of the incubation. The experiment was terminated at 6, 24, or 48 hours by washing the cells in MEM containing cold thymidine followed by the addition of 10% trichloroacetic acid. The precipitate was washed twice with ethanol:ether (3:1), and the wells desiccated at room temperature. The ? redissolved in 2 M KOH at 55° C. for 30 min, neutralized with 1 M HCl, and an aliquot counted for radioactivity. For both cell counts and thymidine incorporation, each experiment at each time point was performed at least 4 different times using experimental groups consisting of at least 6 wells.
The osteogenic response seen above was compared with that of insulin-like growth factor 1 (IGF-1), a well-recognized osteoblast mitogen. The magnitudes of response of the lactoferrin fragments were similar to IGF-1 in the same osteoblast cell culture system.
In general terms: Incorporation of labelled thymidine or its analogues reports DNA synthesis.

[1] abbreviates: primary rat osteoblasts, Table 1.

For FKCRRWQWRMKKLGA [SEQ ID NO. 17], for the setting “figure legends”, the “Mitogenic / proliferative effect on primary osteoblasts (in words)” value (from here on “Mitogenic / proliferative effect”) is “mitogenic to primary osteoblasts”. For the same sequence, the “Dose (ug/mL): minimum dose range that stimulates osteoblast proliferation” value (“Dose (ug/mL)” for short) under setting [1] fell in the range of 0.1 to 10 µg/mL.

In the case of “FKCRRWQWRMKKLGAPSITCVRRAFA [SEQ ID NO. 14]”, the “Concentration at which osteoblast proliferation is significantly different from control” value (figure legends, post hoc Dunnett's test P<0.05 or P<0.01) was 0.01 µg/mL. Moreover, the “Mitogenic / proliferative effect” value (figure legends) is recorded as “mitogenic to primary osteoblasts”. Further, under setting [1], the “Dose (ug/mL)” value was in the range of 0.01 to 1.0 µg/mL.

For “WKLLSKAQEKFGKNKS (listed as Bos taurus) [SEQ ID NO. 33]”, the “Mitogenic / proliferative effect” value (figure legends) is recorded as “mitogenic to primary osteoblasts”. Moreover, the “Dose (ug/mL)” value under setting [1] came out at 100 µg/mL. Besides, the “Dose (M): minimum dose range that stimulates osteoblast proliferation” value (primary rat osteoblasts, Table 1, printed as orders of magnitude, e.g. 10^−7/8) was 10^−5 M.

For the sequence RRWQWRMKKLG [SEQ ID NO. 16], the “Dose (ug/mL)” value under setting [1] lay within 0.1 to 10 µg/mL.

Values taken from patent publication US20090270309A1, “USE OF LACTOFERRIN FRAGMENTS AND HYDROLYSATES” (priority 2005, published 2009).
